Earlier results in US6887863B2, “Hydrazide and alkoxyamide angiogenesis inhibitors” (Abbott Laboratories, priority 2000, dated 2005).

Target: type 2-methionine aminopeptidase (MetAP2) (Homo sapiens, UniProt P50579)
Conditions: reported in Proc. Natl. Acad. Sci. USA 94: 6099-6103 (1997) and Chemistry and Biology 4(6): 461-471 (1997)

type 2-methionine aminopeptidase (MetAP2), sequence (P50579 whole entry, species assumed): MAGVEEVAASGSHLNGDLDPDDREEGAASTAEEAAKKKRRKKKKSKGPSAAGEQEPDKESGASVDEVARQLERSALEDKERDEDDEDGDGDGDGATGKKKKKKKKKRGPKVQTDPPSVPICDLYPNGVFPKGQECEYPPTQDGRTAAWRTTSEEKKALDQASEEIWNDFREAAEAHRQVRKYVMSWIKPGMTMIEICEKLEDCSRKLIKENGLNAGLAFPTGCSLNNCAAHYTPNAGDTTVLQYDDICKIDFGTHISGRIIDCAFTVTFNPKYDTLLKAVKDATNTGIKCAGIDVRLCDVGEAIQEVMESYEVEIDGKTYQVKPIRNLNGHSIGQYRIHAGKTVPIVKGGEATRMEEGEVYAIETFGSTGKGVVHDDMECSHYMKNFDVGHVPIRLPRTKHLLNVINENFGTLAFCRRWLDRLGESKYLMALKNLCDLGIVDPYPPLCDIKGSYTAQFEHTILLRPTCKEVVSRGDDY

CO[C@@H]1[C@H](OC(=O)NC(=O)CCl)CC[C@]2(CO2)[C@H]1[C@@]1(C)O[C@@H]1CC=C(C)C [AGM-1470]
inactivation of MetAP2: covalently inactivate
